Test results published in patent US10865196B2, “Compounds for treatment of cancer” (University of Tennessee Research Foundation, priority 2008, dated 2020).
“And” between values parts separate entries of the source, which are not always exact repeats. Equal entries are not always repeated. Where two headings read alike, the source gives them in different places.

Assays:
[1] = tested on: melanoma (A375, B16-F1) and prostate cancer cells (DU145, PC-3, LNCaP, PPC-1); assay: SRB assay, range over melanoma and prostate cancer cell lines; type: cell-based; settings: for antiproliferative activity against melanoma and prostate cancer cell lines, in words: compared with 8f or parent compounds
Method: For melanoma assays, one human melanoma cell line (A375) and one mouse melanoma cell line (B16-F1) were used. […] Fibroblast cells were used as a control to determine the selectivity of these compounds against melanoma. Human dermal fibroblast cells were purchased from Cascade Biologics, Inc., Portland, Oreg., USA. […] Cells were exposed to a wide range of concentrations for 48 h in round-bottomed 96-well plates. […] After cells were air-dried overnight and stained with SRB solution, total proteins were measured at 560 nm with a plate reader.

A375 = assay: SRB antiproliferation assay, A375 melanoma; type: cell-based, human
From the text: (§1) For melanoma assays, one human melanoma cell line (A375) and one mouse melanoma cell line (B16-F1) were used. […] Fibroblast cells were used as a control to determine the selectivity of these compounds against melanoma. Human dermal fibroblast cells were purchased from Cascade Biologics, Inc., Portland, Oreg., USA.

B16-F1 = assay: SRB antiproliferation assay, B16-F1 melanoma; type: cell-based, mouse
From the text: as §1

PC-3 = assay: SRB antiproliferation assay, PC-3 prostate cancer; settings: read-out: IC50 PC-3, SRB
LNCaP = assay: SRB antiproliferation assay, LNCaP prostate cancer; settings: read-out: IC50 LNCaP, SRB
PPC-1 = assay: SRB antiproliferation assay, PPC-1 prostate cancer; settings: read-out: IC50 PPC-1, SRB
DU 145 = assay: SRB antiproliferation assay, DU 145 prostate cancer; settings: read-out: IC50 DU 145, SRB
[2] = Homo sapiens, A-375, 48 h, SRB, 48 h, read-out: IC50 A375 (converted)
[3] = Mus musculus, B16-F1, 48 h, SRB, 48 h, read-out: IC50 B16-F1 (converted)
[4] = range over the examined cell lines, read-out: IC50 over melanoma and prostate cancer cell lines
[5] = Homo sapiens, A-375, SRB, read-out: IC50 A375 (converted)
[6] = Mus musculus, B16-F1, SRB, read-out: IC50 B16-F1 (converted)
[7] = Homo sapiens, A-375, read-out: IC50 A375
[8] = Mus musculus, B16-F1, read-out: IC50 B16-F1

Row | SMILES | IC50 (A375; [2]) | melting point | IC50 (B16-F1; [3]) | IC50 (A375; [5]) | IC50 (B16-F1; [6]) | also measured
1 | COc1cc(NC(=O)[C@@H]2CSC(c3ccccc3)N2)cc(OC)c1OC (mixture of isomers) [2a, (2RS,4R)-2-Phenyl-N-(3,4,5-trimethoxyphenyl)thiazolidine-4-carboxamide] | > 100 µM | 158 to 159 °C | > 100 µM | – | – | antiproliferative activity against melanoma and prostate cancer cell lines, in words [1]: potency against both cancer cell lines was lost
2 | COc1cc(NC(=O)[C@@H]2CSC(c3cc(OC)c(OC)c(OC)c3)N2)cc(OC)c1OC (mixture of isomers) [2b, (2RS,4R)—N,2-bis(3,4,5-trimethoxyphenyl)thiazolidine-4-carboxamide] | > 100 µM | 147 to 149 °C | > 100 µM | – | – | antiproliferative activity against melanoma and prostate cancer cell lines, in words [1]: potency against both cancer cell lines was lost
3 | COc1cc(NC(=O)[C@@H]2CSC(c3ccccc3)=N2)cc(OC)c1OC [4a, (4R)-2-Phenyl-N-(3,4,5-trimethoxyphenyl)-4,5-dihydrothiazole-4-carboxamide] | 22.8 ± 1.6 µM | 121 to 122 °C and 122 to 123 °C | 38.3 ± 3.2 µM | – | – | IC50 [1, 4]: 3.4 to 38.3 µM
4 | COc1cc(NC(=O)[C@@H]2CSC(c3ccccc3)=N2)cc(OC)c1OC [4b, (4R)-2-Phenyl-N-(3,4,5-trimethoxyphenyl)-4,5-dihydrothiazole-4-carboxamide] | – | – | – | – | – | IC50 (PC-3; 96 h, listed as 4b(4S)): 13.2 ± 2.1 µM; IC50 (A375; SRB, 48 h, listed as 4b(4S), read-out: IC50 A375 (converted)): 13.6 ± 1.2 µM; IC50 (LNCaP; 96 h, listed as 4b(4S)): 16.8 ± 1.8 µM; IC50 (PPC-1; 96 h, listed as 4b(4S)): 3.4 ± 0.2 µM; IC50 (B16-F1; SRB, 48 h, listed as 4b(4S), read-out: IC50 B16-F1 (converted)): 30.4 ± 2.8 µM
5 | O=C(c1ccccc1)c1csc(-c2ccccc2)n1 [8a, Phenyl (2-phenylthiazol-4-yl)-methanone] | > 100 µM | 65 to 66 °C | > 100 µM | – | – | –
6 | COc1ccc(C(=O)c2csc(-c3ccccc3)n2)cc1 [8b, (4-Methoxyphenyl)(2-phenylthiazol-4-yl)-methanone] | > 100 µM | 105 to 106 °C | > 100 µM | – | – | IC50 [1, 4]: > 20 µM
7 | COc1cccc(C(=O)c2csc(-c3ccccc3)n2)c1 [8c, (3-Methoxyphenyl)(2-phenylthiazol-4-yl)-methanone] | > 100 µM | 43 to 44 °C | > 100 µM | – | – | IC50 [1, 4]: > 20 µM
8 | COc1ccccc1C(=O)c1csc(-c2ccccc2)n1 [8d, (2-Methoxyphenyl)(2-phenylthiazol-4-yl)-methanone] | 70.3 µM | – | 59.4 µM | – | – | IC50 [1, 4]: > 20 µM
9 | COc1ccc(C(=O)c2csc(-c3ccccc3)n2)cc1OC [8e, (3,4-Dimethoxyphenyl)(2-phenylthiazol-4-yl)-methanone] | > 100 µM | 89 to 91 °C | > 100 µM | – | – | IC50 [1, 4]: > 20 µM
10 | COc1cc(OC)cc(C(=O)c2csc(-c3ccccc3)n2)c1 [8g, (3,5-Dimethoxyphenyl)(2-phenylthiazol-4-yl)-methanone] | 0.17 µM | 84 to 85 °C | 0.35 µM | – | – | IC50 ([1]; average over six cell lines, read-out: average IC50): 0.261 µM; IC50 [1, 4]: 0.17 to 0.424 µM
11 | O=C(c1csc(-c2ccccc2)n1)c1ccccc1F [8h, (2-Fluorophenyl)(2-phenylthiazol-4-yl)-methanone] | > 100 µM | 77 to 79 °C | > 100 µM | – | – | –
12 | O=C(c1ccccn1)c1csc(-c2ccccc2)n1 [8i, (2-Phenylthiazol-4-yl)-(pyridin-2-yl)-methanone] | – | 95 to 97 °C | – | – | – | antiproliferative activity against melanoma and prostate cancer cell lines, in words [1]: total loss of the anti-cancer activity
13 | CCCCCCCCCCCCCCCCC(=O)c1csc(-c2ccccc2)n1 [8j, 1-(2-Phenylthiazol-4-yl)-heptadecan-1-one] | 16 µM | 63 to 64 °C | 18.6 µM | – | – | –
14 | COc1cc(C(=O)c2csc(-c3ccc(C)cc3)n2)cc(OC)c1OC [8k, (2-p-Tolylthiazol-4-yl)-(3,4,5-trimethoxyphenyl)-methanone] | – | 116 to 119 °C | – | – | – | IC50 (PC-3): 0.005 µM; IC50 [1, 4]: 0.005 to 0.021 µM
15 | COc1ccc(-c2nc(C(=O)c3cc(OC)c(OC)c(OC)c3)cs2)cc1OC [8o, [2-(3,4-Dimethoxyphenyl)-thiazol-4-yl]-(3,4,5-trimethoxyphenyl)-methanone] | – | – | – | 0.034 µM | 0.161 µM | IC50 (DU 145): 0.102 µM; IC50 (PC-3): 0.069 µM; IC50 (LNCaP): 0.038 µM; IC50 (PPC-1): 0.056 µM
16 | COc1cc(C(=O)c2csc(-c3ccc([N+](=O)[O-])cc3)n2)cc(OC)c1OC [8p, [2-(4-Nitrophenyl)-thiazol-4-yl]-(3,4,5-trimethoxyphenyl)-methanone] | – | – | – | 0.038 µM | 0.056 µM | IC50 (DU 145): 0.095 µM; IC50 (PC-3): 0.056 µM; IC50 (LNCaP): 0.039 µM; IC50 (PPC-1): 0.034 µM
17 | COc1cc(C(=O)c2csc(-c3ccc(C(=O)O)cc3)n2)cc(OC)c1OC [8r, 4-[4-(3,4,5-Trimethoxybenzoyl)-thiazol-2-yl]-benzoic acid] | – | > 220 °C (dec.) | – | – | – | antiproliferative activity against melanoma and prostate cancer cell lines, in words [1]: total loss of the anti-cancer activity
18 | COC(=O)c1ccc(-c2nc(C(=O)c3cc(OC)c(OC)c(OC)c3)cs2)cc1 [8s, Methyl-4-[4-(3,4,5-trimethoxybenzoyl)-thiazol-2-yl]-benzoate] | – | 172 to 174 °C | – | – | – | antiproliferative activity against melanoma and prostate cancer cell lines, in words [1]: total loss of potency
19 | COc1cc(C(=O)c2csc(-c3ccc(N)cc3)n2)cc(OC)c1OC [8w, [2-(4-Amino-phenyl)-thiazol-4-yl]-(3,4,5-trimethoxy-phenyl)-methanone] | – | – | – | – | – | IC50 [1, 4]: 0.011 to 0.029 µM
20 | COc1cc(C(=O)c2csc(-c3cccs3)n2)cc(OC)c1OC [8z, [2-(Thiophen-2-yl)-thiazol-4-yl]-(3,4,5-trimethoxyphenyl)-methanone] | – | – | – | – | – | IC50 (DU 145): 0.022 ± 0.001 µM; IC50 [1, 4]: 0.009 to 0.038 µM; IC50 (A375; [7]): 0.02 ± 0.007 µM; IC50 (LNCaP): 0.009 ± 0.001 µM; IC50 (B16-F1; [8]): 0.038 ± 0.015 µM
21 | O=C(c1cc(O)c(O)c(O)c1)c1csc(-c2ccccc2)n1 [11f, (2-Phenyl-thiazol-4-yl)-(3,4,5-trihydroxy-phenyl)-methanone] | – | – | – | – | – | antiproliferative activity against melanoma and prostate cancer cell lines, in words [1]: complete loss of antiproliferative activity
22 | O=C(c1ccc(F)cc1)c1csc(-c2ccccc2)n1 [12-12] | – | – | – | > 10 µM | > 10 µM | –
23 | O=C(c1ccc(F)cc1)c1csc(-c2ccc(F)cc2)n1 [14-14] | – | – | – | > 10 µM | > 10 µM | –
24 | CCc1cc(C(=O)c2csc(-c3ccccc3)n2)cc(OC(F)(F)F)c1OC(=O)CCl [18-18] | – | – | – | – | – | IC50 (DU 145): ~10 µM; IC50 (PC-3): ~10 µM; IC50 (LNCaP): ~10 µM; IC50 (PPC-1): ~10 µM
25 | COc1cc(C(=O)c2csc(-c3ccc(N)cc3)n2)cc(OC)c1OC [26-26] | – | – | – | – | – | IC50 (A375; [7]): 0.011 µM; IC50 (B16-F1; [8]): 0.014 µM
26 | CCCCCCCCCCCCCCCCNC(=O)[C@@H]1CSC(c2ccc(NC(C)=O)cc2)N1 (some centres unmarked) [ATCAA-1, reference compound] | – | – | – | – | – | IC50 (DU 145; 96 h): 1.7 ± 0.1 µM; IC50 [1, 4]: 0.4 to 2.2 µM; IC50 (A375; SRB, 48 h, read-out: IC50 A375 (converted)): 2.1 ± 0.2 µM; IC50 (LNCaP; 96 h): 1 ± 0.1 µM; IC50 (PPC-1; 96 h): 0.4 ± 0.1 µM; IC50 (B16-F1; SRB, 48 h, read-out: IC50 B16-F1 (converted)): 2.2 ± 0.3 µM
27 | COc1cc(NC(=O)c2csc(-c3ccccc3)n2)cc(OC)c1OC [compound 5, 2-Phenyl-N-(3,4,5-trimethoxyphenyl)thiazole-4-carboxamide] | > 100 µM | 157 to 158 °C | > 100 µM | – | – | antiproliferative activity against melanoma and prostate cancer cell lines, in words [1]: did not show any cytotoxicity

Now from value to compound, other results behind:

Row | IC50 (A375; [2]) | melting point | IC50 (B16-F1; [3]) | IC50 (A375; [5]) | IC50 (B16-F1; [6]) | SMILES | also measured
28 | – | – | – | 15.2 µM | 6.9 µM | O=C(c1csc(-c2cc(F)c(F)c(F)c2)n1)c1c(F)c(F)c(F)c(F)c1F [16-16] | –
29 | – | – | – | 4.3 µM | 9.8 µM | O=C(c1csc(-c2ccccc2)n1)c1c(F)c(F)c(F)c(F)c1F [17-17] | –
30 | – | – | – | > 20 µM | > 20 µM | O=C(c1ccc2c(c1)OCO2)N1CCC(c2ccccc2)CC1 [19-19] | –
31 | – | – | – | > 20 µM | > 20 µM | O=C(c1ccc(F)cc1)N1CCC(c2ccccc2)CC1 [22-22] | –
32 | – | – | – | > 10 µM | > 10 µM | Cc1ccc(-c2nc(C(=O)c3ccc(F)cc3)cn2C(=O)c2ccc(F)cc2)cc1 [29-29] | –
33 | – | – | – | > 10 µM | > 10 µM | COc1cc(-c2nc(C(=O)c3ccc(F)cc3)cn2C(=O)c2ccc(F)cc2)cc(OC)c1OC [30-30] | –
34 | – | – | – | 9.8 µM | > 20 µM | O=C(c1cc(O)c(O)c(O)c1)c1csc(-c2ccccc2)n1 [33-33] | –
35 | – | – | – | > 10 µM | > 10 µM | COc1cc(C(=O)c2csc(-c3ccccc3)n2)cc(OC)c1O [34-34] | –
